Assay results reported in US8557855B2, “Methods of using ryanodine antagonists in treating neural injury” (Allergan, Inc., priority 2002, dated 2013).

Assays:
retinal ganglion cells [1] = test: NMDA-induced injury of retinal ganglion cells in vivo in rabbits (cell count at RGC layer); settings: rabbit
Text: (§1) To evaluate in vivo neuroprotective effects of dantrolene (DTL) on NMDA-induced injury of RGCs an imaging method to count cell numbers at the RGC layer in the isolated retinas was developed. Briefly, two weeks following intravitreal injection of vehicle or various test agents, a rabbit was euthanized and the treated eye was enucleated. A piece of retina (8 mm in diameter) was cut immediately below the optic nerve head, flat-mounted in a plastic chamber filled with HEPES-buffered Ames medium, and imaged at 25 fields in a 5×5 array with a 40× water immersion objective using an Olympus microscope (BX50WI) equipped with an epi-fluorescence unit. The images were taken with a Hamamatsu C4742-95 digital camera and Image-Pro Plus software (V4.5). The total number of neurons at the ganglion cell layer in these 25 fields was counted. The same measurements were conducted in one control group (rabbits treated with vehicle) and 4 test groups treated with 1) NMDA, 2) dantrolene+NMDA, 3) veratridine (Verat) a neurotoxin that damages retinal ganglion cells with intracellular sodium overload, and 4) dantrolene+veratridine. The results from the 4 test groups are normalized with respect to that of control.

retinal ganglion cells [2] = type: in vivo; settings: rabbit, intravitreal injection, two weeks after injection, normalized to vehicle control
Text: as §1

retinal ganglion cells [3] = settings: cited from earlier work

For `CN[C@H](CC(=O)O)C(=O)O` [NMDA], the “loss of cells at the RGC layer caused by NMDA alone” value (retinal ganglion cells [1]; intravitreal injection, two weeks after injection, normalized to vehicle control) was 53%.

In the case of `O=C1CN(N=Cc2ccc(-c3ccc([N+](=O)[O-])cc3)o2)C(=O)N1` [dantrolene, 1-[[5-(p-Nitrophenyl)furfurylidene]amino]hydantoin], the “neuroprotective effect on NMDA-induced damage to ganglion cells (FIG. 1)” value (retinal ganglion cells [1]; intravitreal injection of NMDA) is reported as “ameliorated NMDA-induced damage to ganglion cells”, the “NMDA-induced cell death at the RGC layer after pretreatment with dantrolene” value (retinal ganglion cells [1]; intravitreal injection, two weeks after injection, normalized to vehicle control, NMDA alone 53%) is reported as 35% and the “cell loss caused by veratridine with dantrolene” value (retinal ganglion cells [2]; veratridine alone 56%) is reported as 50%.

In the case of `CC12CC3CC(C)(C1)CC(N)(C3)C2` [memantine], the “effect on RGC loss in glaucomatous monkeys” value (retinal ganglion cells [3]) is listed as “ameliorates RGC loss”.

For `COc1ccc(C(=O)O[C@H]2CC[C@@]3(C)[C@@H]4CC[C@H]5[C@]6(O)C[C@H](O)[C@@]7(O)[C@@H](CN8C[C@@H](C)CC[C@H]8[C@@]7(C)O)[C@]6(O)C[C@@]53O[C@]24O)cc1OC` [veratridine], the “cell loss at the RGC layer caused by veratridine alone” value (retinal ganglion cells [2]) was 56%.
